Source: patent US20090029957A1, “8-BETA-SUBSTITUTED ESTRATRIENES AS SELECTIVELY ACTIVE ESTROGENS” (priority 2007, published 2009)
Like-named read-outs stand apart in the source and are kept apart here.

Columns and labels:
[1] = tested on: estrogen receptor preparations from rat uteri; experiment: Competitive 3H-estradiol binding, rat uterus cytosol estrogen receptor; details: 3H-estradiol as ligand
Source text: (§1) In this case, it is assumed that ERβ predominates in the rat prostates over ERα, and ERα predominates in rat uteri over ERβ.

[2] = tested on: estrogen receptor preparations from rat prostates; experiment: Competitive 3H-estradiol binding, rat prostate cytosol estrogen receptor; details: for Rat prost. ER(RBA): 3H-estradiol as ligand; for prost. ER/uterus ER: ratio of RBA rat prostate ER to rat uterus ER
Source text: as §1

[3] = tested on: adult female rats; experiment: Dissociation of action of the uterus and pituitary gland (uterus growth and ovulation); type: in vivo, rat; details: s.c., four times on four consecutive days
Method: The studies with respect to the action on uterus growth and ovulation (indirect effect by influencing the secretion of pituitary gland hormones) are performed on adult female rats (body weight of 220-250 g). The substances are subcutaneously administered four times on four consecutive days. The first administration is carried out in the metestrus. One day after the last administration, the autopsy is carried out. The number of oocytes in the Fallopian tube (effect on the ovulation) as well as the uterus weight are determined.

[4] = tested on: hERβ; experiment: Relative binding affinity to hERβ (Kuiper et al.); parameters: species or system human; details: quotient of RBA hERβ to hERα
Source text: as §1

[5] = tested on: hERβ; details: cited from earlier work

SMILES	Rat uterus ER(RBA) ([1]; Table 1, estradiol = 100)	Rat prost. ER(RBA) ([2]; Table 1, estradiol = 100)	Rat uterus ER(RBA) ([1]; Table 2)	Rat prost. ER(RBA) ([2]; Table 2)	prost. ER/uterus ER ([2]; Table 2)	other results
C[C@]12CCC3c4ccc(O)cc4CCC3C1CC[C@@H]2O (stereo partly drawn) [Estradiol]	100	100				ED50, dose-dependent ovulation inhibition and increase in uterus weight [3]: 0.004 mg/kg of body weight
C=C[C@@]12CCc3cc(O)ccc3[C@H]1CC[C@@]1(C)[C@H]2CC[C@@H]1O [Compound 2, 8β-Vinyl-estra-1,3,5(10)-3,17β-diol]			0.7	63	90	
C[C@]12CC[C@H](O)CC1=CCC1C2CC[C@@]2(C)C1CC[C@@H]2O (stereo partly drawn) [5-Andro-stene-diol]	0.1	5				ERβ/ERα [4]: 3; prost. ER/uterus ER ([2]; Table 1): 50; hERβ RBA* [5]: 17
C=C[C@@]12CCc3cc(O)ccc3[C@H]1CC[C@@]1(C)[C@H]2C[C@@H](F)[C@@H]1O [Compound 1, 8β-Vinyl-estra-1,3,5(10)-16α-fluoro-3,17β-diol]			1.7	167	98	
C[C@]12CC[C@@H]3c4ccc(O)cc4CC[C@H]3[C@@H]1C[C@@H](O)[C@@H]2O [Estriol]						hERβ RBA* ([5]; relative binding affinity, estradiol = 100, cited from Kuiper et al.): 21
